Results published in patent US9149038B2, “4-amino-6-(heterocyclic)picolinates and 6-amino-2-(heterocyclic)pyrimidine-4-carboxylates and their use as herbicides” (Dow AgroSciences LLC, priority 2013, dated 2015).
Where two headings read alike, the source gives them in different places.

Key:
[1] = test system: Key Broadleaf Weed and Crop Species; test: Post-Emergent Test II: postemergent herbicidal activity, visual rating after 14 d (Table 7); format: in vivo; conditions: post-emergence, 336 h; for pest or weed control at 35 g/ha: 35 g ai/ha; for pest or weed control at 70 g/ha: 70 g ai/ha; for pest or weed control at 140 g/ha: 140 g ai/ha
Summary of the method: (§1)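 Visual 0-100% injury score (0 no injury, 100 complete kill) at 14 d post-spray, relative to untreated plants. Seedlings at 1st-2nd true leaf stage; track sprayer at 187 L/ha, highest rate plus ½×, ¼×, ⅛×, 1/16× serial dilutions. Subirrigated after treatment.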

[2] = test system: Key Grass and Sedge Weeds as well as Grass Crops; test: Post-Emergent Test II: postemergent herbicidal activity, visual rating after 14 d (Table 8); format: in vivo; conditions: post-emergence, 336 h; for pest or weed control at 35 g/ha: 35 g ai/ha; for pest or weed control at 70 g/ha: 70 g ai/ha; for pest or weed control at 140 g/ha: 140 g ai/ha
Summary of the method: as §1

[3] = ABUTH: velvetleaf (Abutilon theophrasti), read-out: Visual Growth Reduction (%) 14 Days After Application ABUTH
[4] = AMARE: redroot pigweed (Amaranthus retroflexus), read-out: Visual Growth Reduction (%) 14 Days After Application AMARE
[5] = BRSNN: oilseed rape, canola (Brassica napus), read-out: Visual Growth Reduction (%) 14 Days After Application BRSNN
[6] = CHEAL: lambsquarters (Chenopodium album), read-out: Visual Growth Reduction (%) 14 Days After Application CHEAL
[7] = EPHHL: wild poinsettia (Euphorbia heterophylla), read-out: Visual Growth Reduction (%) 14 Days After Application EPHHL
[8] = HELAN: sunflower (Helianthus annuus), read-out: Visual Growth Reduction (%) 14 Days After Application HELAN
[9] = barnyardgrass (Echinochloa crus-galli), read-out: Visual Growth Reduction (%) 14 Days After Application, ECHCG
[10] = giant foxtail (Setaria faberi), read-out: Visual Growth Reduction (%) 14 Days After Application, SETFA
[11] = rice (Oryza sativa), read-out: Visual Growth Reduction (%) 14 Days After Application, ORYSA
[12] = wheat, spring (Triticum aestivum), read-out: Visual Growth Reduction (%) 14 Days After Application, TRZAS
[13] = yellow nutsedge (Cyperus esculentus), read-out: Visual Growth Reduction (%) 14 Days After Application, CYPES

Row | SMILES | pest or weed control at 35 g/ha [1, 3] | pest or weed control at 70 g/ha [1, 3] | pest or weed control at 140 g/ha [1, 3] | pest or weed control at 35 g/ha [1, 4] | pest or weed control at 70 g/ha [1, 4] | pest or weed control at 140 g/ha [1, 4] | pest or weed control at 35 g/ha [1, 5] | pest or weed control at 70 g/ha [1, 5] | pest or weed control at 140 g/ha [1, 5] | pest or weed control at 35 g/ha [1, 6] | pest or weed control at 70 g/ha [1, 6] | pest or weed control at 140 g/ha [1, 6] | pest or weed control at 35 g/ha [1, 7] | pest or weed control at 70 g/ha [1, 7] | pest or weed control at 140 g/ha [1, 7] | pest or weed control at 35 g/ha [1, 8] | pest or weed control at 70 g/ha [1, 8] | pest or weed control at 140 g/ha [1, 8] | pest or weed control at 35 g/ha [2, 9] | pest or weed control at 70 g/ha [2, 9] | also measured
1 | COC(=O)c1nc(-c2cccc3c2OC(F)(F)O3)cc(N)c1Cl [Compound 84] | 45 to 59% | 60 to 74% | 75 to 84% | 95 to 100% | 95 to 100% | 95 to 100% | 60 to 74% | 75 to 84% | 85 to 94% | 85 to 94% | 85 to 94% | 95 to 100% | 0 to 29% | 0 to 29% | 0 to 29% | 0 to 29% | 30 to 44% | 30 to 44% | 0 to 29% | 0 to 29% | pest or weed control at 140 g/ha [2, 9]: 0 to 29%; pest or weed control at 35 g/ha [2, 10]: 0 to 29%; pest or weed control at 70 g/ha [2, 10]: 0 to 29%; pest or weed control at 140 g/ha [2, 10]: 0 to 29%; pest or weed control at 35 g/ha [2, 11]: 0 to 29%; pest or weed control at 70 g/ha [2, 11]: 0 to 29%; pest or weed control at 140 g/ha [2, 11]: 0 to 29%; pest or weed control at 35 g/ha [2, 12]: 0 to 29%; pest or weed control at 70 g/ha [2, 12]: 0 to 29%; pest or weed control at 140 g/ha [2, 12]: 0 to 29%; pest or weed control at 35 g/ha [2, 13]: 0 to 29%; pest or weed control at 70 g/ha [2, 13]: 0 to 29%; pest or weed control at 140 g/ha [2, 13]: 0 to 29%
2 | COC(=O)c1nc(-c2ccc(Cl)c3c2OC(F)(F)O3)c(C)c(N)c1Cl [Compound 94] | 30 to 44% | 45 to 59% | 45 to 59% | 95 to 100% | 95 to 100% | 95 to 100% | 0 to 29% | 0 to 29% | 0 to 29% | 75 to 84% | 85 to 94% | 85 to 94% | 0 to 29% | 0 to 29% | 0 to 29% | 60 to 74% | 85 to 94% | 95 to 100% | 0 to 29% | 0 to 29% | pest or weed control at 140 g/ha [2, 9]: 0 to 29%; pest or weed control at 35 g/ha [2, 10]: 0 to 29%; pest or weed control at 70 g/ha [2, 10]: 0 to 29%; pest or weed control at 140 g/ha [2, 10]: 0 to 29%; pest or weed control at 35 g/ha [2, 11]: 0 to 29%; pest or weed control at 70 g/ha [2, 11]: 0 to 29%; pest or weed control at 140 g/ha [2, 11]: 0 to 29%; pest or weed control at 35 g/ha [2, 12]: 0 to 29%; pest or weed control at 70 g/ha [2, 12]: 0 to 29%; pest or weed control at 140 g/ha [2, 12]: 0 to 29%; pest or weed control at 35 g/ha [2, 13]: 0 to 29%; pest or weed control at 70 g/ha [2, 13]: 0 to 29%; pest or weed control at 140 g/ha [2, 13]: 0 to 29%
